Measured values as given in patent publication EP1914235A1, “CHIRAL TETRA-HYDRO BETA-CARBOLINE DERIVATIVES AND APPLICATIONS THEREOF AS ANTIPARASITIC COMPOUNDS” (Université de Lille 2 Droit et Santé, priority 2006, dated 2008).
In brackets after ≈: the same amount, converted by molar mass.

Legend:
[1] = system: P. falciparum 3D7 clone of NF54; experiment: [3H]hypoxanthine drug sensitivity assay, 3D7 clone; format: cell-based; settings: Plasmodium falciparum; P. falciparum 3D7, sensitive to all anti-malarials; 48 h, [3H]hypoxanthine uptake; read-out: IC50 3D7(µg/ml)
Protocol: (§1) The cultures are naturally asynchronous (65-75% ring stage) and are maintained in continuous log phase growth in RPMI-1640 medium (as developed by Moore et. al. at Roswell Park Memorial Institute, sold by Sigma Aldrich) supplemented with 5% washed human A+ erythrocytes, 25 mM Hepes, […] NaHCO3, and AlbuMAXII (lipid-rich bovine serum albumin) sold GIBCO, Grand Island, NY (CM). All cultures and assays were conducted at 37°C under an atmosphere of 5% CO2 and 5% O2, with a balance of N2.
(§2) The compounds were further diluted to the appropriate concentration using complete medium RPMI-1640 supplemented with 15nM cold hypoxanthine and AlbuMAXII.
Assays were performed in sterile 96-well microtitre plates; each plate contained 100 µl of parasite culture (0.5% parasitemia, 2.5% hematocrit). Each compound was tested in triplicate and parasite growth compared to control and blank (uninfected erythrocytes) wells. After 24h of incubation at 37°C, […] of [^3H]hypoxanthine was added to each well. Cultures were incubated for a further 24 h before they were harvested onto glass-fiber filter mats. The radioactivity was counted using a Wallac Microbeta® 1450 scintillation counter. […] Percentage inhibition was calculated from comparison to blank and control wells, and IC50 values calculated using Microsoft XLFit ® line fitting software (IDBS, UK).
The preliminary screen used the 3D7 strain. The compounds were tested at 6 concentrations (30, 10, 3, 1, 0.3, and 0.1 µg/ml).
(§3) Both the 3D7 clone and the K1 line were used. The compounds were diluted three-fold over at 12 different concentrations with an appropriate starting concentration based on the preliminary screen. The IC50 was determined by a sigmoidal dose response analysis using Microsoft XLFit™ (IDBS, UK).

[2] = system: P. falciparum K1 strain; experiment: [3H]hypoxanthine drug sensitivity assay, K1 strain; format: cell-based; settings: Plasmodium falciparum, K1; read-out: IC50 K1
Protocol: as §1, §2
Assays were performed in sterile 96-well microtitre plates; each plate contained 100 µl of parasite culture (0.5% parasitemia, 2.5% hematocrit). Each compound was tested in triplicate and parasite growth compared to control and blank (uninfected erythrocytes) wells. After 24h of incubation at 37°C, […] of [^3H]hypoxanthine was added to each well. Cultures were incubated for a further 24 h before they were harvested onto glass-fiber filter mats. The radioactivity was counted using a Wallac Microbeta® 1450 scintillation counter. The results were recorded as counts per minute (CPM) per well at each compound concentration, control and blank wells. Percentage inhibition was calculated from comparison to blank and control wells, and IC50 values calculated using Microsoft XLFit ® line fitting software (IDBS, UK).
as §3

[3] = system: Plasmodium berghei ANKA strain; experiment: In vivo antiparasitic activity in infected mice (4-day dosing, parasitemia on day 5); settings: mice infected with P. berghei ANKA; for Activity at the dose 50 mg/kg (%): 50 mg/kg every day for 4 days; for Activity at the dose 10 mg/kg (%): 10 mg/kg every day for 4 days
Protocol: Female mice (TFW or BALB/c, specific pathogen free), 18-20 g, or
Infection: Blood was taken from donor mice and diluted in RPMI-1640 medium to a parasitemia of 1% (the equivalent of 1x10^7 infected erythrocytes/ml) whilst kept on ice. An inoculum of 0.2 ml was administered to each mouse by the intravenous route. At 2-4 hours post-inoculation dosing commences.
Evaluation endpoint: On day 5 blood smears of all animals (2 slides/mouse) were prepared, fixed with methanol and stained with 10% Giemsa's stain. Parasitemia was determined microscopically by counting 1000 red blood cells under oil immersion at 1000x magnification.
Each of the tested compounds of formula (I) according to the invention was prepared as a stock solution of 5 mg/ml in 10% DMSO/PBS. Insoluble compounds of formula (I) were milled with stainless steel balls for up to 24 hours to reduce particle size. Fresh dilutions were prepared each day. The route of administration of tested compounds is intra peritoneal (i.p.).
Compounds were formulated at 10 mg/kg or at 50 mg/kg in a standard suspension vehicle (0.5% carboxymethylcellulose, 0.5% benzyl alcohol, 0.4% Tween® 80 in 0.9% NaCl) for both oral and i.p. administration.
Dosing was over a 4 day period as above, and evaluation was also as above.

| IC50 [1] [µg/mL] | IC50 [2] [µg/mL] | Structure (SMILES) | Activity at the dose 50 mg/kg (%) [3] [%] | Activity at the dose 10 mg/kg (%) [3] [%] |
| --- | --- | --- | --- | --- |
| 0.1 (≈ 0.187 µM) | 0.12 (≈ 0.224 µM) | O=C1[C@H]2Cc3c([nH]c4ccccc34)[C@@H](c3ccc4c(c3)OCO4)N2C(=O)CN1[C@@H]1CCN(Cc2ccccc2)C1 [Compound 6, (6R,12aR)-6-Benzo[1,3]dioxol-5-yl-2-((R)-1-benzyl-pyrrolidin-3-yl)-2,3,6,7,12,12a-hexahydro-pyrazino[1',2':1,6]pyrido [3,4-b] indole-1,4-dione] | 43 | – |
| 0.09 (≈ 0.167 µM) | 0.07 (≈ 0.13 µM) | Cn1ccnc1CN1CC[C@@H](N2CC(=O)N3[C@H](c4ccc5c(c4)OCO5)c4[nH]c5ccccc5c4C[C@@H]3C2=O)C1 [Compound 28, (6R,12aR)-6-Benzo[1,3]dioxol-5-yl-2-[(R)-1-(1-methyl-1H-imidazol-2-ylmethyl)-pyrrolidin-3-yl]-2,3,6,7,12,12a-hexahydro-pyrazino[1',2':1,6]pyrido[3,4-b]indole-1,4-dione] | 32 | 24 |
| 0.5 (≈ 0.928 µM) | 0.09 (≈ 0.167 µM) | Cn1ccnc1CN1CC[C@@H](N2CC(=O)N3[C@@H](c4ccc5c(c4)OCO5)c4[nH]c5ccccc5c4C[C@@H]3C2=O)C1 [Compound 29, (6S,12aR)-6-Benzo[1,3]dioxol-5-yl-2-[(R)-1-(1-methyl-1H-imidazol-2-ylmethyl)-pyrrolidin-3-yl]-2,3,6,7,12,12a-hexahydro-pyrazino[1',2':1,6]pyrido[3,4-b]indole-1,4-dione] | 19 | – |
| 0.27 (≈ 0.492 µM) | 0.01 (≈ 0.0182 µM) | O=C1[C@H]2Cc3c([nH]c4ccccc34)[C@@H](c3ccc4c(c3)OCO4)N2C(=O)CN1C1CCN(Cc2ccccc2)CC1 [Compound 10, (6R,12aR)-6-Benzo[1,3]dioxol-5-yl-2-(1-benzyl-piperidin-4-yl)-2,3,6,7,12,12a-hexahydro-pyrazino[1',2':1,6]pyrido[3,4-b]indole-1,4-dione] | 31 | 15 |
